Laboratory results taken from patent US20260092061A1, “COMPOUNDS FOR TARGETED PROTEIN DEGRADATION” (Amphista Therapeutics Limited, priority 2022, published 2026).
Where two headings read alike, the source gives them in different places.

What was measured:
Type in all cases: cell-based
BRD9 [1] = molecular target: T1, BRD9 (Homo sapiens, UniProt Q9H8M2); experiment: BRD9 degradation, HiBiT-BRD9 KI HEK293 (LgBiT) cells, NanoGlo Lytic Endpoint assay (Assay Protocol 1); conditions: for Dmax / Dmax at 1 µM: HEK293
T1 sequence (Q9H8M2 1-597): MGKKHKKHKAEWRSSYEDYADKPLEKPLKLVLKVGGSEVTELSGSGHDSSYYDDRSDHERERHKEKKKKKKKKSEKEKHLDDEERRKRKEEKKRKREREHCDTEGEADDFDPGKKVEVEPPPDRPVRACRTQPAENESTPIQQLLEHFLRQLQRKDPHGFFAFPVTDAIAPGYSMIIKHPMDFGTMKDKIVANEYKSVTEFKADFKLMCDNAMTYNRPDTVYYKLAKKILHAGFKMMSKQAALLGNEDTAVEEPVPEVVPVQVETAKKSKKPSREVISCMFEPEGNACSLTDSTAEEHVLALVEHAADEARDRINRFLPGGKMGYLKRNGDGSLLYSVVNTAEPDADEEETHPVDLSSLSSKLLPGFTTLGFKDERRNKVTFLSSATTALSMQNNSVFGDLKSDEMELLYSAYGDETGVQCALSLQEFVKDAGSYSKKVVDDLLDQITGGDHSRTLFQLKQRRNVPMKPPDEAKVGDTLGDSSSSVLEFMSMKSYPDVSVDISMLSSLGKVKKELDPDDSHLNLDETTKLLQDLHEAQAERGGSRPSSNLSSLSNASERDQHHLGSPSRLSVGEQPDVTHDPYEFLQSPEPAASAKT
How it was run: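 HiBiT-tagged BRD9 knock-in HEK293 (LgBiT) cells exposed to compounds for 6 h at 37 °C, 5% CO2. Residual BRD9 measured by HiBiT lytic luminescence. % BRD9 remaining normalised to DMSO-treated cells (high) and no-cell wells (low).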

BRD4 [2] = molecular target: T2, BRD4 (Homo sapiens, UniProt O60885); experiment: BRD4 degradation, HiBiT-BRD4 HEK293 CRISPR CPM cells, NanoGlo Lytic Endpoint assay (Assay Protocol 1); conditions: for Dmax: HEK293, Table 5; for DC50: Table 5
T2 construct: HiBiT-BRD4 HEK293 CRISPR CPM (Promega CS302312); host or cells: HEK293, CRISPR-edited (HiBiT at the BRD4 locus)
Method: HiBiT-BRD9 KI HEK293 (LgBiT) Cells (Promega CS3023412) were seeded at 8000 cells per well (38 μL) in sterile white bottom 384 well plates (Invitrogen 164610 or Greiner 781080) and incubated overnight at 37° C. with 5% CO2. The next day, compounds were prepared at 1000× final concentration in DMSO and diluted 1:100 in media (DMEM PAN Biotech P04-03550+10% FBS ATCC 302025). 4 μL compound was added to each well of the cell plate and incubated for 6 h at 37° C. with 5% CO2 BRD9 expression was quantified using the NanoGlo Lytic Endpoint assay (Promega N3050). The lytic buffer was equilibrated to room temperature for 10-15 min before lytic reagent was prepared by adding substrate (1:50) and LgBit protein (1:100) in lytic buffer. 40 μL lytic reagent mix was added to each well of the cel plate and plates were centrifuged briefly at ˜50g. Plates were incubated with shaking (350 RPM) for 12-24 min before reading using the LUM plus module of a BMG Pherastar FSX. Data was analysed using Dotmatics software and % BRD9 remaining was calculated by normalisation to average data from high and low control wells (DMSO treated cels and no cells respectively).
[…] was determined in line with the procedure as outlined above for BRD9, HiBiT-BRD4 HEK293 CRISPR CPM (Promega CS302312) were seeded at 8000 CPW (36 uL) in sterile white bottom 384 well plates (Invitrogen 164610 or Greiner 781080) and incubated overnight at 37° C. with 5% CO2.

BRD9 [3] = molecular target: T1, BRD9; experiment: BRD9 degradation, HiBiT-BRD9 KI HEK293 (LgBiT) cells, NanoGlo Lytic Endpoint assay (Assay Protocol 1); conditions: Table 3; assay 1; 5 h of treatment
BRD4 [4] = molecular target: T2, BRD4; experiment: BRD4 degradation, HiBiT-BRD4 HEK293 CRISPR CPM cells, NanoGlo Lytic Endpoint assay (Assay Protocol 1); conditions: HEK293; Table 3; assay 1; 1 μM compound at 5 h of treatment
[5] = Table 4, BRD9 degradation, determined according to Assay Protocol 1, read-out: Dmax^1
[6] = Table 5, assay protocol 1, read-out: BRD9 Dmax (%)
[7] = Table 4, BRD9 degradation, determined according to Assay Protocol 1, read-out: DC50^1
[8] = Table 5, assay protocol 1, read-out: BRD9 DC50
[9] = Table 2, BRD9 degradation, Assay Protocol 1, 1 μM compound at 6 h of treatment, read-out: Assay 1 Dmax
[10] = Table 3, assay 1, 1 μM compound at 5 h of treatment, read-out: BRD9 Dmax (%)
[11] = Table 2, BRD9 degradation, Assay Protocol 1, 6 h of treatment, read-out: Assay 1 DC50

| SMILES | Dmax (BRD9 [1]; [5]) [%] | Dmax (BRD9 [1]; [6]) [%] | DC50 (BRD9 [1]; [7]) [nM] | DC50 (BRD9 [1]; [8]) [nM] | Dmax (BRD4 [2]) [%] | DC50 (BRD4 [2]) [nM] | Dmax at 1 µM (BRD9 [1]; [9]) [%] | Dmax at 1 µM (BRD9 [1]; [10]) [%] | DC50 (BRD9 [1]; [11]) [nM] | DC50 (BRD9 [3]) [nM] | Dmax (BRD4 [4]) [%] | Dmax (BRD9 [1]; [10]) [%] |
| --- | --- | --- | --- | --- | --- | --- | --- | --- | --- | --- | --- | --- |
| COc1cc(-c2cn(C)c(=O)c(C)c2C)cc(OC)c1CN1C2CC1CN(C(=O)/C(C#N)=C/c1cccc(Br)n1)C2 (mixture of isomers) [BRD9o, (E/Z)-3-(6-bromopyridin-2-yl)-2-(6-(2,6-dimethoxy-4-(1,4,5-trimethyl-6-oxo-1,6-dihydropyridin-3-yl)benzyl)-3,6-diazabicyclo[3.1.1]heptane-3-carbonyl)acrylonitrile] | > 70 | > 75 | – | 10 to 25 | 25 to 40 | > 1000 | – | – | – | – | – | – |
| COc1cc(-c2cn(C)c(=O)c(C)c2C)cc(OC)c1CN1CCN(Cc2cccc3c2CCN(C(=O)/C(C#N)=C/c2nccs2)C3C)CC1 (mixture of isomers) [Compound A4, (E/Z)-2-(5-((4-(2,6-dimethoxy-4-(1,4,5-trimethyl-6-oxo-1,6-dihydropyridin-3-yl)benzyl)piperazin-1-yl)methyl)-1-methyl-1,2,3,4-tetrahydroisoquinoline-2-carbonyl)-3-(thiazol-2-yl)acrylonitrile] | – | – | – | – | – | – | 70 to 75 | 70 to 75 | < 1.25 | < 1.25 | < 25 | – |
| COc1cc(-c2cn(C)c(=O)c3cnccc23)cc(OC)c1CN1CCN(Cc2cccc3c2CCN(C(=O)/C(C#N)=C\c2ncc(C)s2)C3C)CC1 (mixture of isomers) [Compound A10, (E/Z)-2-(5-((4-(2,6-dimethoxy-4-(2-methyl-1-oxo-1,2-dihydro-2,7-naphthyridin-4-yl)benzyl)piperazin-1-yl)methyl)-1-methyl-1,2,3,4-tetrahydroisoquinoline-2-carbonyl)-3-(5-methylthiazol-2-yl)acrylonitrile] | – | – | – | – | – | – | 40 to 70 | – | < 1.25 | < 1.25 | < 25 | 40 to 70 |
| COc1cc(-c2cn(C)c(=O)c(C)c2C)cc(OC)c1CN1CCN(Cc2cccc3c2CCN(C(=O)/C(C#N)=C/c2cccc(Br)n2)C3C)CC1 (mixture of isomers) [Compound A16, (E/Z)-3-(6-bromopyridin-2-yl)-2-(5-((4-(2,6-dimethoxy-4-(1,4,5-trimethyl-6-oxo-1,6-dihydropyridin-3-yl)benzyl)piperazin-1-yl)methyl)-1-methyl-1,2,3,4-tetrahydroisoquinoline-2-carbonyl) acrylonitrile] | – | – | – | – | – | – | 70 to 75 | 70 to 75 | 1.25 to 10 | 1.25 to 10 | < 25 | – |
| COc1cc(-c2cn(C)c(=O)c3cnccc23)cc(OC)c1CN(C)Cc1cccc2c1CCN(C(=O)/C(C#N)=C/c1cccc(Br)n1)C2C (mixture of isomers) [Compound A50] | – | – | – | – | – | – | > 75 | > 75 | < 1.25 | < 1.25 | < 25 | – |
| COc1cc(-c2cn(C)c(=O)c(C)c2C)cc(OC)c1CN1CCC(Oc2cccc3c2CCN(C(=O)/C(C#N)=C/c2cccc(Br)n2)C3C)CC1 (mixture of isomers) [Compound A68, (E/Z)-3-(6-bromopyridin-2-yl)-2-(5-((1-(2,6-dimethoxy-4-(1,4,5-trimethyl-6-oxo-1,6-dihydropyridin-3-yl)benzyl)piperidin-4-yl)oxy)-1-methyl-1,2,3,4-tetrahydroisoquinoline-2-carbonyl)acrylonitrile] | – | – | – | – | – | – | > 75 | > 75 | 1.25 to 10 | 1.25 to 10 | < 25 | – |
| COc1cc(-c2cn(C)c(=O)c(C)c2C)cc(OC)c1CN(C)C(=O)/C(C#N)=C/C(C)(C)C [BRD9ac, (E/Z)-2-cyano-N-(2,6-dimethoxy-4-(1,4,5-trimethyl-6-oxo-1,6-dihydropyridin-3-yl)benzyl)-N,4,4-trimethylpent-2-enamide] | 30 to 50 | – | 25 to 200 | – | 25 to 40 | > 1000 | – | – | – | – | – | – |

Now from value to compound:

| Dmax (BRD9 [1]; [5]) [%] | Dmax (BRD9 [1]; [6]) [%] | DC50 (BRD9 [1]; [7]) [nM] | DC50 (BRD9 [1]; [8]) [nM] | Dmax (BRD4 [2]) [%] | DC50 (BRD4 [2]) [nM] | Dmax at 1 µM (BRD9 [1]; [9]) [%] | Dmax at 1 µM (BRD9 [1]; [10]) [%] | DC50 (BRD9 [1]; [11]) [nM] | DC50 (BRD9 [3]) [nM] | Dmax (BRD4 [4]) [%] | Dmax (BRD9 [1]; [10]) [%] | SMILES |
| --- | --- | --- | --- | --- | --- | --- | --- | --- | --- | --- | --- | --- |
| > 70 | 70 to 75 | < 25 | 10 to 25 | > 75 | 25 to 1000 | – | – | – | – | – | – | COc1cc(-c2cn(C)c(=O)c(C)c2C)cc(OC)c1CN1CC2CC1CN2C(=O)/C(C#N)=C/C(C)(C)C (mixture of isomers) [BRD9b] |
| 50 to 70 | 40 to 70 | 25 to 200 | 25 to 1000 | 40 to 70 | > 1000 | – | – | – | – | – | – | COc1cc(-c2cn(C)c(=O)c(C)c2C)cc(OC)c1CN1CC2CC1CN2C(=O)/C(C#N)=C/c1nccs1 (mixture of isomers) [BRD9i, (E/Z)-2-(5-(2,6-dimethoxy-4-(1,4,5-trimethyl-6-oxo-1,6-dihydropyridin-3-yl)benzyl)-2,5-diazabicyclo[2.2.1]heptane-2-carbonyl)-3-(thiazol-2-yl)acrylonitrile] |
| 50 to 70 | 40 to 70 | > 200 | 25 to 1000 | > 75 | 25 to 1000 | – | – | – | – | – | – | COc1cc(-c2cn(C)c(=O)c(C)c2C)cc(OC)c1CN1CCN(C(=O)/C(C#N)=C/C(C)(C)C)CC1 [BRD9a, (E/Z)-2-(4-(2,6-dimethoxy-4-(1,4,5-trimethyl-6-oxo-1,6-dihydropyridin-3-yl)benzyl)piperazine-1-carbonyl)-4,4-dimethylpent-2-enenitrile] |
| > 70 | – | < 25 | – | > 75 | 25 to 1000 | – | – | – | – | – | – | COc1cc(-c2cn(C)c(=O)c(C)c2C)cc(OC)c1CN1CCCN(C(=O)/C(C#N)=C/C(C)(C)C)CC1 [BRD9c, (E/Z)-2-(4-(2,6-dimethoxy-4-(1,4,5-trimethyl-6-oxo-1,6-dihydropyridin-3-yl)benzyl)-1,4-diazepane-1-carbonyl)-4,4-dimethylpent-2-enenitrile] |
| > 70 | 70 to 75 | 25 to 200 | 10 to 25 | < 25 | > 1000 | – | – | – | – | – | – | COc1cc(-c2cn(C)c(=O)c(C)c2C)cc(OC)c1CN(C)C1CCN(C(=O)/C(C#N)=C/C(C)(C)C)CC1 [BRD9d, (E/Z)-2-(4-((2,6-dimethoxy-4-(1,4,5-trimethyl-6-oxo-1,6-dihydropyridin-3-yl)benzyl)(methyl)amino)piperidine-1-carbonyl)-4,4-dimethylpent-2-enenitrile] |
| – | – | > 200 | – | > 75 | 25 to 1000 | – | – | – | – | – | – | COc1cc(-c2cn(C)c(=O)c(C)c2C)cc(OC)c1CN1CCN(C(=O)/C(C#N)=C/C(C)(C)C)C2(CC2)C1 [BRD9e, (E/Z)-2-(7-(2,6-dimethoxy-4-(1,4,5-trimethyl-6-oxo-1,6-dihydropyridin-3-yl)benzyl)-4,7-diazaspiro[2,5]octane-4-carbonyl)-4,4-dimethylpent-2-enenitrile] |
| > 70 | > 75 | < 25 | < 1.25 | 40 to 70 | 25 to 1000 | – | – | – | – | – | – | COc1cc(-c2cn(C)c(=O)c(C)c2C)cc(OC)c1CN1CCN(C(=O)/C(C#N)=C/c2cccc(Br)n2)CC1 [BRD9h, (E/Z)-3-(6-bromopyridin-2-yl)-2-(4-(2,6-dimethoxy-4-(1,4,5-trimethyl-6-oxo-1,6-dihydropyridin-3-yl)benzyl)piperazine-1-carbonyl)acrylonitrile] |
